Reference: ChEMBL document CHEMBL1201862, “PubChem BioAssay data set” (2004)
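Results reflect a 48-hour exposure of cells in 96-well plates to compound at five concentrations. GI50 is the concentration that inhibits growth by half.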 The source made the active and inactive calls. No stated cut-off is given here; in the data, active = GI50 up to about 1.1 µM and inactive = higher. Residues, ends and D or L forms follow the SMILES beside them.

Key:
Test in all cases: NCI anticancer screen, dose series, 48 h
A549 = tested on: A549
CCRF-CEM = tested on: CCRF-CEM
COLO 205 = tested on: COLO 205
HT-29 = tested on: HT-29
K562 = tested on: K562
LOX IMVI = tested on: LOX IMVI
MCF7 = tested on: MCF7
MDA-MB-435 = tested on: MDA-MB-435
MOLT-4 = tested on: MOLT-4
NCI-H460 = tested on: NCI-H460
NCI/ADR-RES = tested on: NCI/ADR-RES
OVCAR-3 = tested on: OVCAR-3
OVCAR-4 = tested on: OVCAR-4
SF-295 = tested on: SF-295
SK-MEL-5 = tested on: SK-MEL-5
SW-620 = tested on: SW-620
T47D = tested on: T47D
UACC-62 = tested on: UACC-62

| Structure (SMILES) | GI50 (A549) | GI50 (CCRF-CEM) | GI50 (COLO 205) | GI50 (HT-29) | GI50 (K562) | GI50 (LOX IMVI) | GI50 (MCF7) | GI50 (MDA-MB-435) | GI50 (MOLT-4) | GI50 (NCI-H460) | GI50 (NCI/ADR-RES) | GI50 (OVCAR-3) | GI50 (OVCAR-4) | GI50 (SF-295) | GI50 (SK-MEL-5) | GI50 (SW-620) | GI50 (T47D) | GI50 (UACC-62) |
| --- | --- | --- | --- | --- | --- | --- | --- | --- | --- | --- | --- | --- | --- | --- | --- | --- | --- | --- |
| Oc1ccccc1/C=N/c1nc2cc3sc(/N=C/c4ccccc4O)nc3cc2s1 | 6.98 µM (inactive) | 4.74 µM (inactive) | 3.3 µM (inactive) | 26.2 µM (inactive) | 67.3 µM (inactive) | 34.2 µM (inactive) | 12.5 µM (inactive) | > 95.9 µM (inactive) | 0.889 µM (active) | 4.61 µM (inactive) | > 100 µM (inactive) | > 100 µM (inactive) | 69.7 µM (inactive) | > 54.3 µM (inactive) | > 47.9 µM (inactive) | 20.7 µM (inactive) | > 61.1 µM (inactive) | > 100 µM (inactive) |
| O=C1/C(=N/c2ccccc2)Oc2cc(O)ccc21 | > 100 µM (inactive) | > 100 µM (inactive) | > 100 µM (inactive) | > 100 µM (inactive) | > 100 µM (inactive) | > 100 µM (inactive) | 56.4 µM (inactive) | > 100 µM (inactive) | > 100 µM (inactive) | > 100 µM (inactive) | > 100 µM (inactive) | > 100 µM (inactive) | > 100 µM (inactive) | > 100 µM (inactive) | > 100 µM (inactive) | > 100 µM (inactive) | > 100 µM (inactive) | > 100 µM (inactive) |
| COc1ccc(-c2cn3c(n2)sc2cc(C)ccc23)cc1 | 24.4 µM (inactive) | 19.8 µM (inactive) | 5.51 µM (inactive) | 5.96 µM (inactive) | 3.64 µM (inactive) | 17.5 µM (inactive) | 4.85 µM (inactive) | 5.28 µM (inactive) | 17.5 µM (inactive) | 20.7 µM (inactive) | > 100 µM (inactive) | 7.14 µM (inactive) | 10.9 µM (inactive) | 16.8 µM (inactive) | 3.65 µM (inactive) | 25.8 µM (inactive) | 3.33 µM (inactive) | 12.3 µM (inactive) |
| Cc1nc2c(nc1C)-c1c(c3c(n1C)C(=O)CCC3)C(=O)C2=O | 1.3 µM (inactive) | 0.219 µM (active) | 1.75 µM (inactive) | 1.98 µM (inactive) | 0.338 µM (active) | 0.186 µM (active) | 0.163 µM (active) | 0.174 µM (active) | 0.312 µM (active) | 1.23 µM (inactive) | 0.547 µM (active) | 0.156 µM (active) | 0.145 µM (active) | 1.75 µM (inactive) | 0.406 µM (active) | 0.214 µM (active) | 0.0697 µM (active) | 0.406 µM (active) |
| COC(=O)CCC1=NCC(C)(C)O1 | > 10 µM (inactive) | > 10 µM (inactive) | > 10 µM (inactive) | > 10 µM (inactive) | 0.182 µM (active) | > 10 µM (inactive) | > 10 µM (inactive) | > 10 µM (inactive) | > 10 µM (inactive) | > 10 µM (inactive) | > 10 µM (inactive) | > 10 µM (inactive) | > 10 µM (inactive) | > 10 µM (inactive) | > 10 µM (inactive) | > 10 µM (inactive) | > 10 µM (inactive) | > 10 µM (inactive) |
| C=C(C)CCC1CCCCC(CN(C)C)C1=O (stereo not drawn) | > 100 µM (inactive) | > 100 µM (inactive) | > 100 µM (inactive) | > 100 µM (inactive) | > 100 µM (inactive) | > 100 µM (inactive) | 75 µM (inactive) | > 100 µM (inactive) | 31.3 µM (inactive) | > 100 µM (inactive) | > 100 µM (inactive) | > 100 µM (inactive) | > 100 µM (inactive) | > 100 µM (inactive) | > 100 µM (inactive) | > 100 µM (inactive) | > 100 µM (inactive) | > 100 µM (inactive) |
| CCOP(=O)(/C=C\n1ccc(N)nc1=O)OCC | > 100 µM (inactive) | > 100 µM (inactive) | > 100 µM (inactive) | > 100 µM (inactive) | > 100 µM (inactive) | > 100 µM (inactive) | > 100 µM (inactive) | > 100 µM (inactive) | > 100 µM (inactive) | > 100 µM (inactive) | > 100 µM (inactive) | > 100 µM (inactive) | > 100 µM (inactive) | > 100 µM (inactive) | > 100 µM (inactive) | > 100 µM (inactive) | > 100 µM (inactive) | > 100 µM (inactive) |
| CCN1C(=O)c2ccccc2C1(O)c1ccc(Cl)cc1 (stereo not drawn) | 25 µM (inactive) | 59.8 µM (inactive) | 35.6 µM (inactive) | 41.9 µM (inactive) | > 100 µM (inactive) | 51.4 µM (inactive) | 47.6 µM (inactive) | 83.2 µM (inactive) | 47.3 µM (inactive) | 89.7 µM (inactive) | 16.5 µM (inactive) | 31.1 µM (inactive) | > 100 µM (inactive) | 18.4 µM (inactive) | 31.6 µM (inactive) | > 100 µM (inactive) | 17.7 µM (inactive) | 79.1 µM (inactive) |
| CC1(C)CCC(=O)NC1CC(=O)CC1NC(=O)CCC1(C)C (stereo not drawn) | > 100 µM (inactive) | > 100 µM (inactive) | > 100 µM (inactive) | > 100 µM (inactive) | > 100 µM (inactive) | > 100 µM (inactive) | > 100 µM (inactive) | > 100 µM (inactive) | > 100 µM (inactive) | > 100 µM (inactive) | > 100 µM (inactive) | > 100 µM (inactive) | > 100 µM (inactive) | > 100 µM (inactive) | > 100 µM (inactive) | > 100 µM (inactive) | > 100 µM (inactive) | > 100 µM (inactive) |
| COCCOCCOC1=CC(=O)c2c(O)ccc(O)c2C1=O | 1.75 µM (inactive) | 1.41 µM (inactive) | 0.296 µM (active) | 0.518 µM (active) | 0.671 µM (active) | 1.52 µM (inactive) | 0.555 µM (active) | 0.0278 µM (active) | 2.04 µM (inactive) | 1.91 µM (inactive) | 1.96 µM (inactive) | 1.44 µM (inactive) | 1.73 µM (inactive) | 1.82 µM (inactive) | 0.173 µM (active) | 0.571 µM (active) | 1.82 µM (inactive) | 1.45 µM (inactive) |
| O=C(O)Cc1cccnc1 | > 100 µM (inactive) | > 100 µM (inactive) | > 100 µM (inactive) | > 100 µM (inactive) | > 100 µM (inactive) | > 100 µM (inactive) | > 100 µM (inactive) | > 100 µM (inactive) | > 100 µM (inactive) | > 100 µM (inactive) | > 100 µM (inactive) | > 100 µM (inactive) | > 100 µM (inactive) | > 100 µM (inactive) | > 100 µM (inactive) | > 100 µM (inactive) | > 100 µM (inactive) | > 100 µM (inactive) |
| CC1(C)CCCCCC(C)(CCCCCCCCCCCO)C1=O (stereo not drawn) | 15.1 µM (inactive) | 13 µM (inactive) | 17.1 µM (inactive) | 11.9 µM (inactive) | 15.3 µM (inactive) | 15.4 µM (inactive) | 16.1 µM (inactive) | 16.6 µM (inactive) | 19.5 µM (inactive) | 17.1 µM (inactive) | 14 µM (inactive) | 16 µM (inactive) | 15.5 µM (inactive) | 15.7 µM (inactive) | 16.7 µM (inactive) | 18.4 µM (inactive) | 14.6 µM (inactive) | 15.5 µM (inactive) |
| Cn1c2ccccc2c2ccc3c(c21)C(=O)c1ccc2c4ccccc4n(C)c2c1C3=O | > 100 µM (inactive) | > 100 µM (inactive) | > 100 µM (inactive) | > 100 µM (inactive) | > 100 µM (inactive) | > 100 µM (inactive) | 97.1 µM (inactive) | > 100 µM (inactive) | > 100 µM (inactive) | > 100 µM (inactive) | > 100 µM (inactive) | > 65 µM (inactive) | > 65.5 µM (inactive) | > 100 µM (inactive) | > 100 µM (inactive) | > 100 µM (inactive) | > 100 µM (inactive) | > 100 µM (inactive) |
| CC(=O)NC(CO)C(=O)NC(Cc1ccc(O)cc1)C(=O)NCC(N)=O (stereo not drawn) (Ac-Ser-Tyr-Gly-NH2; configuration not given here) | > 100 µM (inactive) | > 100 µM (inactive) | > 100 µM (inactive) | > 100 µM (inactive) | > 100 µM (inactive) | > 100 µM (inactive) | > 100 µM (inactive) | > 100 µM (inactive) | > 100 µM (inactive) | > 100 µM (inactive) | > 100 µM (inactive) | > 100 µM (inactive) | > 100 µM (inactive) | > 100 µM (inactive) | > 100 µM (inactive) | > 100 µM (inactive) | > 100 µM (inactive) | > 100 µM (inactive) |
| C[C@]1(O)O[C@@H]2OCC[C@@H]2C2=C1C(=O)c1ccccc1C2=O | 17.9 µM (inactive) | 15.4 µM (inactive) | 24.9 µM (inactive) | 29.9 µM (inactive) | 15.7 µM (inactive) | 11.4 µM (inactive) | 6.46 µM (inactive) | 6.56 µM (inactive) | 5.04 µM (inactive) | 16 µM (inactive) | 19.7 µM (inactive) | 9.66 µM (inactive) | 12.5 µM (inactive) | 18.7 µM (inactive) | 12.4 µM (inactive) | 18.4 µM (inactive) | 18.3 µM (inactive) | 19.2 µM (inactive) |
| Cc1ccc(Cl)c2[nH]c(-c3ccccc3)cc(=O)c12 | 24.1 µM (inactive) | 38.5 µM (inactive) | 40.9 µM (inactive) | 43.5 µM (inactive) | 30.1 µM (inactive) | 22.5 µM (inactive) | 3.18 µM (inactive) | 21.1 µM (inactive) | 21.6 µM (inactive) | 37 µM (inactive) | 57.4 µM (inactive) | 36.1 µM (inactive) | 37.8 µM (inactive) | 63.5 µM (inactive) | 15.8 µM (inactive) | 39.2 µM (inactive) | 11.5 µM (inactive) | 48.2 µM (inactive) |
